Source: the supplement of paper PMC4862054

Legend:
Settings in all cases: incubation time: 72 h
BT-474 [1] = test: normalised viability (% of control), CellTiter-Blue; higher = more viable cells (about 100 = DMSO control)
Experimental: (§1)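 DSRT, CellTiter-Blue viability, 72 h incubation. Signal is normalised to DMSO and benzethonium chloride controls. Value is the normalised response at dose 3.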

BT-549 [2] = test: as above
Experimental: as §1

CAL-120 = test: as above
Experimental: as §1

CAL-148 = test: as above
Experimental: as §1

CAL-51 = test: as above
Experimental: as §1

CAL-85-1 [3] = test: as above
Experimental: as §1

DU-4475 = test: as above
Experimental: as §1

HCC1143 = test: as above
Experimental: as §1

HCC1599 [4] = test: as above
Experimental: as §1

HCC1937 = test: as above
Experimental: as §1

HDQ-P1 = test: as above
Experimental: as §1

Hs578T [5] = test: as above
Experimental: as §1

MDA-MB-231 [6] = test: as above
Experimental: as §1

MDA-MB-436 [7] = test: as above
Experimental: as §1

MDA-MB-453 = test: as above
Experimental: as §1

MDA-MB-468 [8] = test: as above
Experimental: as §1

MFM-223 [9] = test: as above
Experimental: as §1

SK-BR-3 = test: as above
Experimental: as §1

BT-474 [10] = test: drug sensitivity score (DSS), CellTiter-Glo (DSS (AUC-based score)); higher = stronger drug effect (viability inhibition or cytotoxicity); extreme values may be limits of the assay
Method in brief: (§2)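 A drug sensitivity score was derived from the area under each fitted dose-response curve. Breast cancer cells (20 µl suspension) were seeded onto compound in 384-well plates, using 5 concentrations 10-fold apart over a compound-specific 10,000-fold range, and incubated 72 h. Readouts were CellTox Green fluorescence and then CellTiter-Glo luminescence, with every plate normalised to 0.1 % DMSO and a positive kill control.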

CAL-85-1 [11] = test: as above
Method in brief: as §2

HCC1599 [12] = test: as above
Method in brief: as §2

Hs578T [13] = test: as above
Method in brief: as §2

MCF-10A = test: as above
Method in brief: as §2

MDA-MB-231 [14] = test: as above
Method in brief: as §2

MDA-MB-436 [15] = test: as above
Method in brief: as §2

MDA-MB-468 [16] = test: as above
Method in brief: as §2

MFM-223 [17] = test: as above
Method in brief: as §2

BT-474 [18] = test: drug sensitivity score (DSS), CellTox Green (DSS (AUC-based score)); higher = stronger drug effect (viability inhibition or cytotoxicity); extreme values may be limits of the assay
Method in brief: as §2

BT-549 [19] = test: as above
Method in brief: as §2

Structure (SMILES)	normalised viability (BT-474 [1]; 100 nM)	normalised viability (BT-549 [2]; 100 nM)	normalised viability (CAL-120; 100 nM)	normalised viability (CAL-148; 10 nM)	normalised viability (CAL-51; 10 nM)	normalised viability (CAL-85-1 [3]; 10 nM)	normalised viability (DU-4475; 10 nM)	normalised viability (HCC1143; 100 nM)	normalised viability (HCC1599 [4]; 100 nM)	drug sensitivity score (BT-474 [10])	drug sensitivity score (CAL-85-1 [11])	drug sensitivity score (HCC1599 [12])	drug sensitivity score (Hs578T [13])	drug sensitivity score (MCF-10A)	drug sensitivity score (MDA-MB-231 [14])	drug sensitivity score (MDA-MB-436 [15])	drug sensitivity score (MDA-MB-468 [16])	drug sensitivity score (MFM-223 [17])	drug sensitivity score (BT-474 [18])	drug sensitivity score (BT-549 [19])	further results
O=C(/C=C/c1cccc(S(=O)(=O)Nc2ccccc2)c1)NO [Belinostat]	90.4%	91.2%	66.3%	91%	105%	89.7%	109%	96.6%	82.8%	14.9	12.6	12.1	11	10.8	14	10.5	14.7	13.9	8.01	0	normalised viability (HCC1937; 100 nM): 92.4%; normalised viability (HDQ-P1; 10 nM): 121%; normalised viability (Hs578T [5]; 100 nM): 70.2%; normalised viability (MDA-MB-231 [6]; 100 nM): 93.7%; normalised viability (MDA-MB-436 [7]; 100 nM): 95.3%; normalised viability (MDA-MB-453; 10 nM): 95.8%; normalised viability (MDA-MB-468 [8]; 100 nM): 88.5%; normalised viability (MFM-223 [9]; 100 nM): 96.4%; normalised viability (SK-BR-3; 100 nM): 65.7%
O=P1(N(CCCl)CCCl)NCCCO1 (centres undefined) [Cyclophosphamide]										0	0	0	0	0	0	0	0	0	0	0	normalised viability (BT-474 [1]; 400 nM): 118%; normalised viability (BT-549 [2]; 400 nM): 117%; normalised viability (CAL-120; 400 nM): 85.6%; normalised viability (CAL-148; 40 nM): 103%; normalised viability (CAL-51; 40 nM): 107%; normalised viability (CAL-85-1 [3]; 40 nM): 101%; normalised viability (DU-4475; 40 nM): 103%; normalised viability (HCC1143; 400 nM): 90.2%; normalised viability (HCC1599 [4]; 400 nM): 109%; normalised viability (HCC1937; 400 nM): 99.8%; normalised viability (HDQ-P1; 40 nM): 97.9%; normalised viability (Hs578T [5]; 400 nM): 93%; normalised viability (MDA-MB-231 [6]; 400 nM): 97.8%; normalised viability (MDA-MB-436 [7]; 400 nM): 101%; normalised viability (MDA-MB-453; 40 nM): 110%; normalised viability (MDA-MB-468 [8]; 400 nM): 109%; normalised viability (MFM-223 [9]; 400 nM): 91.1%; normalised viability (SK-BR-3; 400 nM): 91.6%
C=C1C[C@@H]2[C@H](CC[C@]3(C)C(=O)CC[C@@H]23)[C@@]2(C)C=CC(=O)C=C12 [Exemestane]	99.4%	106%	92.7%	95.4%	96.2%	84.4%	91.1%	96%	87.6%	0	0	0	0	0	0	0	0	0	0	0	normalised viability (HCC1937; 100 nM): 103%; normalised viability (HDQ-P1; 10 nM): 102%; normalised viability (Hs578T [5]; 100 nM): 94.4%; normalised viability (MDA-MB-231 [6]; 100 nM): 99.2%; normalised viability (MDA-MB-436 [7]; 100 nM): 82.8%; normalised viability (MDA-MB-453; 10 nM): 102%; normalised viability (MDA-MB-468 [8]; 100 nM): 111%; normalised viability (MFM-223 [9]; 100 nM): 93%; normalised viability (SK-BR-3; 100 nM): 78%
O=C(Nc1ccncc1)C(=O)c1cn(Cc2ccc(Cl)cc2)c2ccccc12 [Indibulin]	41.7%	69.9%	36.5%	105%	100%	106%	108%	64%	146%	4.97	13	7.03	7.7	0	3.55	11.9	12.2	7.28	1.31	0	normalised viability (HCC1937; 100 nM): 30.4%; normalised viability (HDQ-P1; 10 nM): 95.8%; normalised viability (Hs578T [5]; 100 nM): 67.7%; normalised viability (MDA-MB-231 [6]; 100 nM): 52%; normalised viability (MDA-MB-436 [7]; 100 nM): 73.8%; normalised viability (MDA-MB-453; 10 nM): 84.8%; normalised viability (MDA-MB-468 [8]; 100 nM): 61.1%; normalised viability (MFM-223 [9]; 100 nM): 108%; normalised viability (SK-BR-3; 100 nM): 18.9%
NC(=O)c1ccc(I)c([N+](=O)[O-])c1 [Iniparib]	94.6%	106%	105%	96.3%	93%	87.6%	101%	86.8%	103%	0	0	0	0	0	0	3.5	3.75	0	0	0	normalised viability (HCC1937; 100 nM): 109%; normalised viability (HDQ-P1; 10 nM): 108%; normalised viability (Hs578T [5]; 100 nM): 91.8%; normalised viability (MDA-MB-231 [6]; 100 nM): 98.8%; normalised viability (MDA-MB-436 [7]; 100 nM): 88.5%; normalised viability (MDA-MB-453; 10 nM): 86.2%; normalised viability (MDA-MB-468 [8]; 100 nM): 96.7%; normalised viability (MFM-223 [9]; 100 nM): 92.4%; normalised viability (SK-BR-3; 100 nM): 72.4%
Oc1ccc2c(c1)CC[C@H](c1ccccc1)[C@@H]2c1ccc(OCCN2CCCC2)cc1 [Lasofoxifene]										0	0	0	0	0	0	0	0	0	0	0	normalised viability (BT-474 [1]; 10 nM): 122%; normalised viability (BT-549 [2]; 10 nM): 113%; normalised viability (CAL-120; 10 nM): 86.9%; normalised viability (CAL-148; 1 nM): 101%; normalised viability (CAL-51; 1 nM): 95.1%; normalised viability (CAL-85-1 [3]; 1 nM): 94.4%; normalised viability (DU-4475; 1 nM): 98.7%; normalised viability (HCC1143; 10 nM): 90.7%; normalised viability (HCC1599 [4]; 10 nM): 104%; normalised viability (HCC1937; 10 nM): 87.2%; normalised viability (HDQ-P1; 1 nM): 107%; normalised viability (Hs578T [5]; 10 nM): 84.3%; normalised viability (MDA-MB-231 [6]; 10 nM): 90.1%; normalised viability (MDA-MB-436 [7]; 10 nM): 85.3%; normalised viability (MDA-MB-453; 1 nM): 108%; normalised viability (MDA-MB-468 [8]; 10 nM): 87.2%; normalised viability (MFM-223 [9]; 10 nM): 82.8%; normalised viability (SK-BR-3; 10 nM): 83.2%
